Read-outs that look alike come from different tables or passages of the source.
Columns and labels:
[1] = test system: p15 tumor suppressor gene; assay: p15 tumor suppressor gene re-expression (RT-PCR) in MV4-11 cells; format: cell-based; conditions: for p15 mRNA re-expression: MV4-11 cell line
Description: Therefore, to determine the re-expression of tumor suppressor genes through epigenetic regulation mechanisms induced by DNMT1 inhibition upon Aza-T-dCyd (NTX-301) treatment, MV4-11 cells, an AML cell line, were treated with Aza-T-dCyd at different concentrations. […] Table 1 below compares the degree of p15 mRNA re-expression after DNMT1 inhibitor (Aza-T-dCyd/Decitabine) treatment in the MV4-11 cell line, an AML cell (fold increase from 0 nM is shown).

[2] = test system: DNMT1 knock-out MV4-11 cells; assay: Target engagement: cytotoxicity in DNMT1 knock-out MV4-11 cell line; format: cell-based; conditions: DNMT1 knock-out (siRNA) MV4-11, concentration-dependent treatment
Description: This confirms that Aza-T-dCyd has potent pharmacological effects through DNMT1 (FIG. 18).

AML cell lines = assay: Cell viability inhibition in AML cell lines; format: cell-based; conditions: various AML cell lines, FIG. 19
Description: The growth-inhibitory activity of Aza-T-dCyd, a DNMT1 inhibitor, was measured in leukemia cell lines to determine its inhibitory effect on cell proliferation.

DNA methylation = assay: DNA demethylation; format: cell-based
Description: Through DNA demethylation caused by Aza-T-dCyd treatment, various tumor suppressor genes and genes required for differentiation induction of AML cells were reactivated, and the reactivated expression patterns of these genes were confirmed by RNA-seq data analysis (FIG. 24).

[3] = test system: systemic MV4-11 engraftment model; conditions: for survival: oral
Description: After establishing a systemic MV4-11 engraftment model that more accurately depicts the disease in humans, Aza-T-dCyd was administered orally at doses ranging from 0.4 to 1.5 mg/kg.
After establishment of the systemic MV4-11 engraftment model, Aza-T-dCyd was administered orally at doses of 1.5, 2.0, and 2.5 mg/kg (using the standard dose/dosing schedule used in preclinical trials for decitabine/azacytidine).
After establishing a systemic MV4-11 engraftment model, blood was collected at pre-treatment (Day 21) and mid-treatment (Day 36, 56, 77) in the Aza-T-dCyd and Decitabine/Azacytidine groups and analyzed for complete blood count (CBC) values.
To determine whether the anti-cancer efficacy in the systemic MV4-11 engraftment model was directly related to the ability to suppress the number of cancer cells, we performed experiments to measure body luminescence after systemic engraftment using the luciferase-transfected Mv4-11 cell line.

DNMT3A = DNMT3A expression in HL-60 xenograft tumor samples; format: in vivo, mice; conditions: 2 mg/kg NTX-301 intraperitoneally, day 11
Description: (§1) As the efficacy of DNMT1 inhibitors correlates with their selective profile for targeting DNMT1 and the de novo methyltransferases DNMT3A and DNMT3B, we confirmed the expression of DNMT1, DNMT3A, and DNMT3B in the Aza-T-dCyd and Decitabine treated groups in this xenograft model (FIG. 27).
(§2) In the HL-60 xenograft mice model, 2 mg/kg of NTX-301 (Aza-T-dCyd) or 0.75 mg/kg of Decitabine were administered intraperitoneally, and then tumor samples were collected on day 11 to determine the expression of DNMT1, DNMT3A, and DNMT3B. […] On the other hand, the expression levels of DNMT3A and DNMT3B were different in the Aza-T-dCyd and Decitabine treatment groups.

[4] = test system: ALL-Patient Derived Xenografts; assay: ALL-Patient Derived Xenografts (PDX); format: in vivo; conditions: doses tolerated up to 1.5 mg/kg (0.5, 1, 1.5, 2 mg/kg tested)
Description: To determine the efficacy of Aza-T-dCyd in another indication, T-ALL, we evaluated the efficacy of Aza-T-dCyd in a patient-derived ALL animal model.
Aza-T-dCyd was administered at doses of 0.5, 1, 1.5, and 2 mg/kg in ALL-Patient Derived Xenografts (PDX), with T-dCyd (DNMT1 inhibitor) used as a comparative control.

NCI-H522 (NSCLC) = NCI-H522 (NSCLC) xenograft model; format: in vivo; conditions: nude mouse, 2 mg/kg, (6) cycles
Description: The efficacy of Aza-T-dCyd was confirmed by tumor growth curves after administration of Aza-T-dCyd in various solid cancer xenograft models. Aza-T-dCyd at a dose of 1~2 mg/kg was administered repeatedly for 2~6 cycles in QD×5, showing excellent anti-cancer effects (evidenced by test/control (T/C) value≤40%).

[5] = Preliminary toxicity experiments (Comet assay, bone marrow); format: in vivo; conditions: mice
Description: As a preliminary toxicity assessment of the Aza-T-dCyd compound, preliminary toxicity experiments were conducted to determine the presence of toxicity symptoms (tissue changes) and DNA damage in bone marrow in mice after 2 weeks of systemic administration, and to assess the cellular composition in bone marrow of mice after 4 weeks of systemic administration.

GLP dog toxicology study = format: in vivo; conditions: dog, 0.15, 0.5 and 1.0 mg/kg per day
Description: GLP-Tox studies have been conducted in rats and dogs, with 2 cycles of QD×5d at PO.
In a GLP dog toxicology study, Aza-T-dCyd was administered at 0.15, 0.5, and 1.0 mg/kg (3, 10, and 20 mg/m^2) per day. […] The maximum tolerated dose (MTD) was between 0.5 and 1 mg/kg (10~20 mg/m^2) per day, the highest non-toxic dose (HNSTD) was 0.5 mg/kg (10 mg/m^2) per day, and the no observed adverse effect level (NOAEL) was <0.15 mg/kg (3) mg/m^2) per day.

DNMT1 [6] = molecular target: T1, DNMT1 (Homo sapiens, UniProt P26358); assay: Western blotting of Molm13 xenograft cancer tissues, DNMT1; format: in vivo; set-up: endogenous in cells; conditions: after administration
DNMT1 [7] = molecular target: T1, DNMT1; assay: DNMT1 expression in HL-60 xenograft tumor samples; format: in vivo, mice; set-up: tumor samples were collected on day 11 to determine the expression of DNMT1, DNMT3A, and DNMT3B; from tissue; host or cells: HL-60 xenograft tumour samples (mouse host); conditions: 2 mg/kg NTX-301 or 0.75 mg/kg Decitabine intraperitoneally, day 11
Description: as §1, §2

T1 sequence (P26358 whole entry): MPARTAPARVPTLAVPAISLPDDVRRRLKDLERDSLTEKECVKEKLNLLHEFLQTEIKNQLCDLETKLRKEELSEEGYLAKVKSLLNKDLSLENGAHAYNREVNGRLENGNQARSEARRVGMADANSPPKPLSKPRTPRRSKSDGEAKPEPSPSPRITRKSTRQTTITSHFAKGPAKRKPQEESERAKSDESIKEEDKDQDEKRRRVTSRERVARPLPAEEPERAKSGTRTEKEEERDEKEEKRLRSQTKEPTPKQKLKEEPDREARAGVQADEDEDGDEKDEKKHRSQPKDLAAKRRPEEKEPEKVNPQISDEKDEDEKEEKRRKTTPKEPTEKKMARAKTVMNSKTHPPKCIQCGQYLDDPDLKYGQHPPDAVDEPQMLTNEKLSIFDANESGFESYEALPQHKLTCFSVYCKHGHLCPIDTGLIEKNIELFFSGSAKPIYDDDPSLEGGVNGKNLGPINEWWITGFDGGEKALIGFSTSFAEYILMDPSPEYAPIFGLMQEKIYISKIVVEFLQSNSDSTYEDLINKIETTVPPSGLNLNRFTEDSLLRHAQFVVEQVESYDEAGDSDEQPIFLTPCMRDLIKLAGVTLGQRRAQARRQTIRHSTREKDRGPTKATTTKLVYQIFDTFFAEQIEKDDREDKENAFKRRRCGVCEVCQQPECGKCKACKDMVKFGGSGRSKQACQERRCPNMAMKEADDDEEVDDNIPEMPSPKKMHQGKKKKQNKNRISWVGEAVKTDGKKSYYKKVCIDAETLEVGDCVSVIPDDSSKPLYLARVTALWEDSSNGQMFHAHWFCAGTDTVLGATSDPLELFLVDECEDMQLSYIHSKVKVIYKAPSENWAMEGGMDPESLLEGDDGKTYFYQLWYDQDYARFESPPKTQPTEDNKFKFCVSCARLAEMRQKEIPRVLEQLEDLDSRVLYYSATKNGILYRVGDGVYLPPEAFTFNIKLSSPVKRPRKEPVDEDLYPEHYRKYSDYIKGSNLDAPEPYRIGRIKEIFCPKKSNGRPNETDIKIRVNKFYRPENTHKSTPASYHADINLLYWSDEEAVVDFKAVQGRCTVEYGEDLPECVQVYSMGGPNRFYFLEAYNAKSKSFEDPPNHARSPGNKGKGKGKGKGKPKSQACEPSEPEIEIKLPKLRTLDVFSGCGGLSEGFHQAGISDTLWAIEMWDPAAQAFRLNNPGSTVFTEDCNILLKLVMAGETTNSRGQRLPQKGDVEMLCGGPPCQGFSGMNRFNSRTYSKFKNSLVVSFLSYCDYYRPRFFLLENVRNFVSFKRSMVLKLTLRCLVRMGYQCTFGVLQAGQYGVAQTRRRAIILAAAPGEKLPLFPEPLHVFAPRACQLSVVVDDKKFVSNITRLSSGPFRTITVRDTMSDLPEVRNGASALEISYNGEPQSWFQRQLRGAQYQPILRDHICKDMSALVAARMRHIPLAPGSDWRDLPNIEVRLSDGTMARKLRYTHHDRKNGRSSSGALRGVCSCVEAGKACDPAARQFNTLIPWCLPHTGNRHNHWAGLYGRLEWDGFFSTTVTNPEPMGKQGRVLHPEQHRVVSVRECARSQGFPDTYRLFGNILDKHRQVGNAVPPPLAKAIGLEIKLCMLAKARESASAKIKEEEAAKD

Question: For Nc1ncn([C@H]2CC(O)[C@@H](CO)S2)c(=O)n1 (some centres unmarked) [Aza-T-dCyd, 4′-thio-5-aza-2′-deoxycytidine], which “p15 mRNA re-expression” value ([1]; 6 nM) is on record?
Answer: 1.4 ± 0.19 fold increase from 0 nM

Question: And the “p15 mRNA re-expression” value ([1]; 20 nM)?
Answer: 1.7 ± 0.38 fold increase from 0 nM

Question: What about the “p15 mRNA re-expression” value ([1]; 60 nM) of the same compound?
Answer: 2.6 ± 0.89 fold increase from 0 nM

Question: What about the “p15 mRNA re-expression” value ([1]; 200 nM) of the same compound?
Answer: 6.1 ± 0.86 fold increase from 0 nM

Question: What about the “p15 upregulation compared with decitabine” value ([1]; MV4-11 cells) of the same compound?
Answer: induced p15 upregulation better than decitabine

Question: And the “expression of p15 tumor suppressor gene (quantitative RT-PCR)” value ([1]; MV4-11 cells, 60 nM and 200 nM)?
Answer: significantly increased

Question: What about the “p15 mRNA re-expression (RT-PCR)” value ([1]; MV4-11 cells, different concentrations, FIG. 14) of the same compound?
Answer: strong re-expression of p15 mRNA

Question: And the “cytotoxicity in DNMT1 knock-out cell line” value [2]?
Answer: decrease in cytotoxicity

Question: What about the cell viability inhibition (AML cell lines) of the same compound?
Answer: excellent cell viability inhibition

Question: And the “overall DNA methylation levels” value (DNA methylation)?
Answer: decrease in overall DNA methylation levels

Question: What about the “pattern of DNA demethylation” value (DNA methylation) of the same compound?
Answer: biased and selective demethylation

Question: And the “anti-AML activity and survival” value ([3]; Aza-T-dCyd oral 1.5, 2.0 and 2.5 mg/kg, decitabine/azacytidine at standard preclinical dose/schedule)?
Answer: very good anti-AML activity and improved survival

Question: And the body luminescence ([3]; luciferase-transfected Mv4-11 cell line, systemic engraftment)?
Answer: inhibited body luminescence more strongly than the actual Azacytidine treatment

Question: And the “complete blood count (WBC, RBC, Neutrophil, Platelet)” value ([3]; mouse, in vivo)?
Answer: no changes

Question: What about the survival ([3]; highest dose (range 0.4 to 1.5 mg/kg)) of the same compound?
Answer: more than half of the mice survived to the end of the experiment

Question: What about the survival ([3]; lowest dose of 0.4 mg/kg) of the same compound?
Answer: statistically significant survival improvement

Question: And the “DNMT3A expression level in tumor samples” value (DNMT3A)?
Answer: not affected

Question: And the “efficacy in pediatric ALL PDX” value [4]?
Answer: highly effective

Question: What about the “Optimal T/C (%) (test/control)” value (NCI-H522 (NSCLC)) of the same compound?
Answer: 31%

Question: What about the “cellular composition of the bone marrow” value ([5]; 4 weeks of continuous administration) of the same compound?
Answer: no changes in the various cells that make up the bone marrow

Question: And the “organ damage at necropsy” value ([5]; after two weeks)?
Answer: no organ damage

Question: And the “Comet assay for DNA damage in bone marrow” value ([5]; after two weeks of treatment, versus untreated control)?
Answer: no changes in various indicators of DNA damage

Question: What about the weight changes ([5]; two-week systemic administration) of the same compound?
Answer: no significant weight changes

Question: And the target organs (GLP dog toxicology study)?
Answer: bone marrow, thymus, gastrointestinal tract, tonsils, and testes

Question: What about the “DNMT1 in cancer tissues (Western blotting)” value (DNMT1 [6]) of the same compound?
Answer: strongly inhibited DNMT1 and DNMT3B in a concentration-dependent manner

Question: And the “DNMT1 expression in tumor samples” value (DNMT1 [7])?
Answer: significantly reduced
